From patent US4504580A, “Antibiotics produced by fermentation of a novel strain of Streptomyces hygroscopicus” (Bristol-Myers Company, priority 1983, dated 1985)
≈ marks a conversion by molar mass, not a printed value.

What was measured:
Type in all cases: cell-based
[1] = test system: Micrococcus luteus PCI 1001; assay: MIC by serial two-fold agar dilution, M. luteus PCI 1001; details: Micrococcus luteus, PCI1001
Description: (§1) The minimum inhibitory concentrations (MIC) of Bu-2659A, B, C, D and E were determined for a variety of gram-positive and gram-negative bacteria by the serial two-fold agar dilution method using the Steer's multi-inoculating apparatus. The inoculum was standardized as a 10^4 dilution of an overnight culture of the test organisms in Heart Infusion Broth (Difco). […] Reference antibiotics utilized in these tests included commercially available neomycin as well as its components, neomycins B and C [as used herein, the term "neomycin" means the commercial product containing neomycins B and C at an approximate ratio of 7:3], paromomycin [the commercial product containing >90% of paromomycin I and <10% of paromomycin II] and ribostamycin.

Proteus vulgaris A9436 = assay: MIC by serial two-fold agar dilution, P. vulgaris A9436; details: Proteus vulgaris, A9436
Description: as §1

[2] = test system: Staphylococcus aureus Smith; assay: MIC by serial two-fold agar dilution, S. aureus Smith; details: Staphylococcus aureus
Description: as §1

[3] = test system: Staphylococcus aureus A20239; assay: MIC, aminoglycoside-resistant S. aureus A20239; details: Staphylococcus aureus, A20239
Description: as §1

Proteus morganii A9553 = assay: MIC by serial two-fold agar dilution, P. morganii A9553; details: Morganella morganii, A9553
Description: as §1

[4] = test system: Pseudomonas aeruginosa A9930; assay: MIC by serial two-fold agar dilution, P. aeruginosa A9930; details: Pseudomonas aeruginosa, A9930
Description: as §1

[5] = test system: Bacillus brevis IFO 12334; assay: MIC, aminoglycoside-resistant B. brevis IFO 12334; details: Brevibacillus brevis, IFO12334
Description: as §1

Micrococcus flavus D12 = assay: MIC by serial two-fold agar dilution, M. flavus D12; details: Micrococcus flavus, D12
Description: as §1

Proteus mirabilis A9906 = assay: MIC by serial two-fold agar dilution, P. mirabilis A9906; details: Proteus mirabilis, A9906
Description: as §1

[6] = test system: Escherichia coli JR66/W677; assay: MIC, aminoglycoside-resistant E. coli JR66/W677; details: Escherichia coli, JR66/W677
Description: as §1

Escherichia coli A20107 = assay: MIC, aminoglycoside-resistant E. coli A20107; details: Escherichia coli, A20107; Table 9; inactivating enzyme APH(3')-II; Mueller-Hinton agar; read-out: MIC
Description: as §1

[7] = test system: Pseudomonas aeruginosa D15; assay: MIC by serial two-fold agar dilution, P. aeruginosa D15; details: Pseudomonas aeruginosa, D15
Description: as §1

Escherichia coli ML 1630 = assay: MIC, aminoglycoside-resistant E. coli ML 1630; details: Escherichia coli, ML1630; Table 9; inactivating enzyme APH(3')-I; Mueller-Hinton agar; read-out: MIC
Description: as §1

[8] = test system: Staphylococcus aureus 209P; assay: MIC by serial two-fold agar dilution, S. aureus 209P; details: Staphylococcus aureus, 209P
Description: as §1

Escherichia coli Juhl = assay: MIC by serial two-fold agar dilution, E. coli Juhl; details: Escherichia coli
Description: as §1

[9] = test system: Pseudomonas aeruginosa A20896; assay: MIC, aminoglycoside-resistant P. aeruginosa A20896; details: Pseudomonas aeruginosa, A20896
Description: as §1

[10] = test system: Enterobacter cloacae A20364; assay: MIC, aminoglycoside-resistant E. cloacae A20364; details: Enterobacter cloacae, A20364
Description: as §1

[11] = test system: Escherichia coli JR35/C600; assay: MIC, aminoglycoside-resistant E. coli JR35/C600; details: Escherichia coli, JR35/C600
Description: as §1

Proteus mirabilis A9554 = assay: MIC by serial two-fold agar dilution, P. mirabilis A9554; details: Proteus mirabilis, A9554
Description: as §1

[12] = test system: Serratia marcescens A20019; assay: MIC by serial two-fold agar dilution, S. marcescens A20019; details: Serratia marcescens, A20019
Description: as §1

Escherichia coli JR88 = assay: MIC, aminoglycoside-resistant E. coli JR88; details: Escherichia coli, JR88
Description: as §1

[13] = test system: Klebsiella pneumoniae D11; assay: MIC by serial two-fold agar dilution, K. pneumoniae D11; details: Klebsiella pneumoniae, D11
Description: as §1

Proteus rettgeri A15167 = assay: MIC by serial two-fold agar dilution, P. rettgeri A15167; details: Providencia rettgeri, A15167
Description: as §1

[14] = test system: Escherichia coli NR79/W677; assay: MIC, aminoglycoside-resistant E. coli NR79/W677; details: Escherichia coli, NR79/W677
Description: as §1

[15] = test system: Staphylococcus aureus D136; assay: MIC by serial two-fold agar dilution, S. aureus D136; details: Staphylococcus aureus, D136
Description: as §1

[16] = test system: Pseudomonas aeruginosa A20601; assay: MIC, aminoglycoside-resistant P. aeruginosa A20601; details: Pseudomonas aeruginosa, A20601
Description: as §1

[17] = test system: Bacillus subtilis PCI 219; assay: MIC by serial two-fold agar dilution, B. subtilis PCI 219; details: Bacillus subtilis, PCI219
Description: as §1

Escherichia coli A20732 = assay: MIC, aminoglycoside-resistant E. coli A20732; details: Escherichia coli, A20732; Table 9; inactivating enzyme ANT(2"); Mueller-Hinton agar; read-out: MIC
Description: as §1

Escherichia coli NIHJ = assay: MIC by serial two-fold agar dilution, E. coli NIHJ; details: Escherichia coli; Table 7; Mueller-Hinton agar; read-out: MIC
Description: as §1

NC[C@@H]1O[C@H](O[C@H]2[C@@H](O)[C@H](O[C@@H]3[C@@H](O)[C@H](N)C[C@H](N)[C@H]3O[C@H]3O[C@H](CO)[C@@H](O)[C@H](O)[C@H]3N)O[C@@H]2CO)[C@H](N)[C@@H](O)[C@@H]1O [Paromomycin, paromomycin]
MIC [1]: 6.3 µg/mL (≈ 10.2 µM) | MIC (Proteus vulgaris A9436): 0.8 µg/mL (≈ 1.3 µM) | MIC [2]: 1.6 µg/mL (≈ 2.6 µM) | MIC [3]: > 100 µg/mL | MIC (Proteus morganii A9553): 1.6 µg/mL (≈ 2.6 µM) | MIC [4]: 12.5 µg/mL (≈ 20.3 µM) | MIC [5]: > 100 µg/mL | MIC (Micrococcus flavus D12): 12.5 µg/mL (≈ 20.3 µM) | MIC (Proteus mirabilis A9906): 0.8 µg/mL (≈ 1.3 µM) | MIC [6]: > 100 µg/mL | MIC (Escherichia coli A20107): > 100 µg/mL | MIC [7]: 50 µg/mL (≈ 81.2 µM) | MIC (Escherichia coli ML 1630): > 100 µg/mL | MIC [8]: 0.8 µg/mL (≈ 1.3 µM) | MIC (Escherichia coli Juhl): 12.5 µg/mL (≈ 20.3 µM) | MIC [9]: > 100 µg/mL | MIC [10]: > 100 µg/mL | MIC [11]: > 100 µg/mL | MIC (Proteus mirabilis A9554): 0.8 µg/mL (≈ 1.3 µM) | MIC [12]: 1.6 µg/mL (≈ 2.6 µM) | MIC (Escherichia coli JR88): 1.6 µg/mL (≈ 2.6 µM) | MIC [13]: 0.4 µg/mL (≈ 0.65 µM) | MIC (Proteus rettgeri A15167): 1.6 µg/mL (≈ 2.6 µM) | MIC [14]: > 100 µg/mL | MIC [15]: 0.8 µg/mL (≈ 1.3 µM) | MIC [16]: > 100 µg/mL | MIC [17]: 0.2 µg/mL (≈ 0.325 µM) | MIC (Escherichia coli A20732): 1.6 µg/mL (≈ 2.6 µM) | MIC (Escherichia coli NIHJ): 3.1 µg/mL (≈ 5.04 µM)
